The text below walks through data of patent US12599674B2, “Conjugates, their compositions, and their related methods” (THE ADMINISTRATORS OF THE TULANE EDUCATIONAL FUND, priority 2021, dated 2026).

For data set [1], the system named is human gastric tumor SGC-7901 cells. The experiment in a line: Xenograft mouse model, SGC-7901 tumor growth. In kind it is in vivo, BALB/c nude mice. The conditions noted are these: tail vein; 100 μl containing 0.4 mg of AP-3 on days 0 and 14; nude mice; compared to controls. The method, then: Female BALB/c nude mice aged at 4-6 weeks-old were purchased (Tyercan, Ltd, Shenzhen) and reared in the laboratory animal facility for one week to adapt to the new environment. A total of 5×10^6 human gastric tumor SGC-7901 cells (200 μl) were inoculated into the right flank of each mouse by subcutaneous injection. When the tumor sizes reached 100-300 mm^3 (tumor volume=0.5×Length×Width^2), tumor-carrying mice in the experimental group were given (via tail vein injection) a first dose (at day zero) of 100 μl of AP3-HSA 200 mg/kg and a second dose (at day 14) of 150 mg/kg. A control group was injected with 100 μl of AP-3 containing 0.4 mg of AP-3 on days 0 and 14 in a similar fashion. 100 μl of normal saline was injected via the tail vein in a second control group on the same days. Tumor volumes were measured and mouse bodies were weighed twice a week since the first administration.

Data set [2] can be described thus: Body weights in U-937 xenograft study. The note with it: U-937 xenograft SCID mice, tail vein AP3 0.5 mg/kg days 0 and 15 (FIG. 11 legend). In kind it is in vivo. The method, then:
Female SCID mice (Tyercan, Ltd, Shenzhen) aged at 4-6 weeks-old were purchased and reared in the laboratory animal facility for one week to adapt to the new environment. A total of 5×10^6 human U-937 lymphoma tumor cells (200 μl) were inoculated into the right flank of each mouse by subcutaneous injection. […] […] 100 μl of normal saline was injected via the tail vein in a second control group on the same days. Tumor volumes were measured and mouse bodies were weighed twice a week since the first administration.

Entries after “also recorded” stand apart in the source; their conditions may differ.

As to `COc1cc2cc(c1Cl)N(C)C(=O)C[C@H](OC(=O)C(C)C)[C@]1(C)O[C@@H]1[C@H](C)[C@@H]1C[C@@](O)(NC(=O)O1)[C@H](OC)/C=C/C=C(\C)C2` [AP3, Ansamitocin P3], in data set [1], the “effect on growth of SGC-7901 tumors” value was “only marginally effective”. Also, in data set [2], the “recovery of body weights after treatment” value is on record as “returned to normal about a week after the final injections”. Also, in data set [2] (0.5 mg/kg), the “effect on body weights” value is listed as “decreases in body weight; also recorded: weight losses”.
